Assays:
[1] = Acetylation of compound 3 by N-methoxydiacetamide in PBS with acylation catalyst, fluorescence change over time; details: for increase in fluorescence intensity over time vs. no catalyst: PBS pH 7.4, 1% DMSO, 25° C.
Description: The compound 3 (1 μM) and an acylation catalyst or acylation reaction-promoting agent (10 mM) were dissolved in PBS (pH 7.4, containing 1% DMSO), N-methoxydiacetamide (NMD, 0.1M) was added as an acetylating agent 1 minute afterward, and change of fluorescence was measured over time at 25° C.

[2] = Absorption and fluorescence properties of the rhodamine derivative before and after acetylation; assay type: physicochemical; details: for fluorescence maximum: excitation at 550 nm; for absorption maximum / molar absorption coefficient ε at absorption maximum: in PBS (medium given for compound 3); for fluorescence quantum yield: in PBS, rhodamine B as control
From the text: The compound 3 (RH—NH2) obtained had the absorption maximum (ε=71400 M^−1cm^−1) at 546 nm in PBS, fluorescence maximum at 570 nm with excitation at 550 nm, and fluorescence quantum yield of 4.9×10^−4 as measured in PBS using rhodamine B as a control. The acetylated compound 4 (RH—NHAc) had the absorption maximum (ε=35500 M^−1cm^−1) at 553 nm, fluorescence maximum at 572 nm with excitation at 550 nm, and fluorescence quantum yield of 0.12.

[3] = test system: HeLa cells; assay: Visualization of intracellular acetylation in HeLa cells by fluorescence enhancement; assay type: cell-based
Description: The acylation catalyst was added at the time point of 2 minutes, and N-methoxydiacetamide (NMD, 10 mM) was added as an acetylating agent at the time point of 7 minutes. Enhancement of the fluorescence intensity (F/F0) was calculated with an excitation wavelength of 550 nm and a fluorescence wavelength of 575 nm as an average of the results obtained from five cells. […] FIGS. 4, (c), (d), and (e) show color images of the HeLa cell after 1 minute, 5 minutes, and 10 minutes, respectively.
In view of the results of the model acetylation shown in Example 3, it is considered that enhancement of the intracellular fluorescence intensity was originated in acetylation advanced by physiological acetyl-CoA in the inside of mitochondria. […] Therefore, advance of the intracellular acetylation was successfully visualized by the compound 3 together with the physiological acetyl-CoA and the additionally added acetylating agent. It is known that the acetyl-CoA concentration in mitochondria is higher than the average intracellular acetyl-CoA concentration (J. Gen., Microbiol., 134, pp. 2249-2253, 1988), and the aforementioned results are consistent with this finding.

[4] = Acetylation of compound 3 by compound 6 (acetyl-CoA analogue) with tributylphosphine in PBS; details: compound 3 1 μM, tributylphosphine 10 mM, PBS pH 7.4, 1% DMSO, 25° C., ex 550 nm, em 575 nm
Description: The compound 3 (1 μM) was mixed with tributylphosphine (10 mM) as the acylation catalyst or acylation reaction-promoting agent, the compound 6 was added 1 minute afterward, and advance of the acetylation was measured over time at 25° C. in PBS (pH 7.4, 1% DMSO) in the same manner as that of Example 2. Fluorescence of 575 nm was measured with excitation at 550 nm. […] Correlation was observed between the fluorescence intensity and the concentration of the acetylating agent 1 minute after the addition of the acetylating agent (FIG. 2).

[5] = test system: HeLa cells; assay: Staining and mitochondrial localization in HeLa cells (double staining with TagCFP-Mito); assay type: cell-based
Description: In order to visualize an intracellular acetylation, the following experiment was conducted by using the compound 3 as the rhodamine derivative. It is known that a positively charged rhodamine derivative structure such as tetramethylrhodamine migrates into cells and localizes in mitochondria (J. Circ. Res., 95, pp. 239-252, 2004; J. Biol. Chem., 264, pp. 8171-8178, 1989; Plos. One., 6, e23684, 2011; as especially for localization of 5-aminorhodamine derivatives in mitochondria, see, GB2283744 and U.S. Pat. No. 5,686,261). The compound 3 (10 μM) was allowed to act on the HeLa cells at 37° C. for 30 minutes in the Hanks' balanced salt solution (HBSS, 137 mM NaCl, 5.4 mM KCl, 1.3 mM CaCl2, 0.5 mM MgCl2, 0.4 mM MgSO4, 0.3 mM Na2HPO4, 0.4 mM KH2PO4, 4.2 mM NaHCO3, 5.6 mM D-glucose, 5 mM HEPES, adjusted to pH 7.4 with NaOH), the cells were washed twice with HBSS, and then fluorescence was measured.
The localization in the mitochondria of the HeLa cells was visualized by expression of TagCFP-Mito, which is a cyan fluorescent protein, and thereby confirmed. The HeLa cells were transfected with the pTagCFP-Mito vector (Evrogen) using Lipofectamine LTX (Invitrogen), and fluorescence was measured from 24 hours thereafter. The compound 3 was excited at 559 nm, and fluorescence of 580 to 680 nm was measured. TagCFP-Mito was excited at 440 nm, and fluorescence of 460 to 500 nm was measured. […]

[6] = compound 3 1 μM, catalyst 10 mM, NMD 0.1M

Row | fluorescence maximum [2] | absorption maximum [2] | molar absorption coefficient ε at absorption maximum [2] | fluorescence quantum yield [2] | SMILES | increase in fluorescence intensity over time vs. no catalyst [1, 6] | other results
1 |  |  |  |  | CCCCP(CCCC)CCCC [tributylphosphine] | larger increase in fluorescence intensity was observed over time | fluorescence intensity relative to that without addition of catalyst ([1]; 5 minutes after addition, compound 3 1 μM, catalyst 10 mM, NMD 0.1M, PBS pH 7.4, 25° C.): about 5 times; increase in reaction rate relative to reaction without catalyst ([1]; compared with rate at start of reaction without catalyst): about 5.5 times
2 | 572 nm | 553 nm | 35500 M⁻¹ cm⁻¹ | 0.12 | CC(=O)Nc1ccc(-c2c3ccc(=[N+](C)C)cc-3oc3cc(N(C)C)ccc23)cc1.CC(=O)[O-] [compound 4, N-(9-(4-Acetamidophenyl)-6-(dimethylamino)-3H-xanthen-3-ylidene)-N-methylmethanaminium acetate] |  | 
3 | 570 nm | 546 nm | 71400 M⁻¹ cm⁻¹ | 4.9×10^−4 | CN(C)c1ccc2c(-c3ccc(N)cc3)c3ccc(=[N+](C)C)cc-3oc2c1.O=C([O-])C(F)(F)F [compound 3, N-(9-(4-Aminophenyl)-6-(dimethylamino)-3H-xanthen-3-ylidene)-N-methylmethanaminium trifluoroacetate] |  | enhancement of fluorescence intensity over time, no catalyst ([3]; 37° C., absence of acylation catalyst or reaction-promoting agent): enhancement of fluorescence intensity was not observed; fluorescence intensity after further adding N-methoxydiacetamide ([3]; NMD 10 mM added at 7 minutes, after tributylphosphine 5 mM): the fluorescence intensity was further enhanced; enhancement of intracellular fluorescence intensity with tributylphosphine ([3]; compound 3 10 μM, tributylphosphine 5 mM added to medium, 37° C.): enhancement of intracellular fluorescence intensity was observed; increase of fluorescence on acetylation with compound 6 [4]: Rapid increase of fluorescence was obtained; intracellular localization (staining image) ([5]; 10 μM, 37° C., 30 minutes, HBSS): localization of the compound in the mitochondria; consistency of fluorescence image with TagCFP-Mito image ([5]; ex 559 nm, em 580 to 680 nm, HeLa cells transfected with pTagCFP-Mito): well consistent with the fluorescence image of the cyan fluorescence protein expressed in the mitochondria
4 |  |  |  |  | CN(C)c1ccncc1 [dimethylaminopyridine] | larger increase in fluorescence intensity was observed over time | 
